Among the data in patent US8927560B2, “4-Aza-2, 3-didehydropodophyllotoxin compounds and process for the preparation thereof” (Council of Scientific & Industrial Research, priority 2010, dated 2015) are GI50 and melting point values, retold here.

SMILES strings stand for the structures.

The test system of one series is KB. Briefly: SRB in vitro cytotoxicity assay, KB oral cancer cells. Conditions: Homo sapiens, 48 h drug exposure, read-out: In vitro anticancer activity GI50, Oral KB. Type of series: cell-based. The source says:
(§1) Compounds 4a-4z and 4aa-4ae have been evaluated for their in vitro cytotoxicity in selected human cancer cell lines i.e., colon (Colo205), lung (Hop-62, A549), cervix (SiHa), prostate (PC3), oral (KB, DWD, Gurav), Ovarian (A-2780) and breast (MCF7, Zr-75-1) origin by employing the sulforhodamine B (SRB) assay method (Skehn, P.; Storeng, R.; Scudiero, A.; Monks, J.; MeMohan, D.; Vistica, D.; Jonathan, T. W.; Bokesch, H.; Kenney, S.; Boyd M. R. J. Natl. Cancer Inst. 1990, 82, 1107).
(§2) The synthesized compounds have been evaluated for their in vitro cytotoxicity in human cancer cell lines. A protocol of 48 h continuous drug exposure has been used and a sulforhodamine B (SRB) protein assay has been used to estimate cell viability or growth. The cell lines were grown in DMEM medium containing 10% fetal bovine serum and 2 mM L-glutamine and were inoculated into 96 well microtiter plates in […] at plating densities depending on the doubling time of individual cell lines. The microliter plates were incubated at 37_C, 5% CO2, 95% air, and 100% relative humidity for 24 h prior to addition of experimental drugs. Aliquots of […] of the drug dilutions were added to the appropriate microliter wells already containing […] of cells, suiting in the required final drug concentrations. For each compound four concentrations (0.1, 1, 10 and 100 uM) were evaluated and each was done in triplicate wells. Plates were incubated further for 48 h and assay was terminated by the addition of […] of cold trichloro acetic acid (TCA) (final concentration, 10% TCA) and incubated for 60 min at 4_C. The plates were washed five times with tap water and airdried. Sulforhodamine B (SRB) solution ([…]) at 0.4% (w/v) in 1% acetic acid was added to each of the cells, and plates were incubated for 20 min at room temperature. The residual dye was removed by washing five times with 1% acetic acid. The plates were airdried. Bound stain was subsequently eluted with 10 mM trizma base, and the absorbance was read on an ELISA plate reader at a wavelength of 540 nm with 690 nm reference wavelengths. Percent growth was calculated on a plate by plate basis for test wells relative to control wells. The above determinations were repeated three times. Percentage growth was expressed as the (ratio of average absorbance of the test well to the average absorbance of the control wells)*100. Growth inhibition of 50% (GI50) was calculated from [(Ti−Tz)/(C−Tz)]*100 ¼ 50, which is the drug concentration resulting in a 50% reduction in the net protein increase (as measured by SRB staining) in control cells during the drug incubation. Where, Tz ¼ Optical density at time zero, OD of control ¼ C, and OD of test growth in the presence of drug ¼ Ti.

A further series concerns PC3. Briefly: SRB in vitro cytotoxicity assay, PC3 prostate cancer cells. Conditions: Homo sapiens, PC-3, 48 h drug exposure, read-out: In vitro anticancer activity GI50, Prostate PC3. It is filed as cell-based.
Excerpt: as §1, §2

The subject of a further series is DWD. As to the kind of experiment: SRB in vitro cytotoxicity assay, DWD oral cancer cells. It is filed as cell-based. Conditions: Homo sapiens, 48 h drug exposure, read-out: In vitro anticancer activity GI50, Oral DWD.
Excerpt: as §1, §2

In the next series the test system is A-549. Briefly: SRB in vitro cytotoxicity assay, A-549 lung cancer cells. As to conditions: Homo sapiens, A549, 48 h drug exposure, read-out: In vitro anticancer activity GI50, Lung A-549. It is filed as cell-based.
Excerpt: as §1, §2

The subject of a further series is MCF7. Briefly: SRB in vitro cytotoxicity assay, MCF7 breast cancer cells. It is filed as cell-based. Conditions: Homo sapiens, 48 h drug exposure, read-out: In vitro anticancer activity GI50, Breast MCF7.
Excerpt: as §1, §2

Another series has as its system Gurav. As to the kind of experiment: SRB in vitro cytotoxicity assay, Gurav oral cancer cells. Conditions: Homo sapiens, 48 h drug exposure, read-out: In vitro anticancer activity GI50, Oral Gurav. Type of series: cell-based.
Excerpt: as §1, §2

The subject of a further series is A-2780. As to the kind of experiment: SRB in vitro cytotoxicity assay, A-2780 ovarian cancer cells. Type of series: cell-based. As to conditions: Homo sapiens, A2780, 48 h drug exposure, read-out: In vitro anticancer activity GI50, Ovarian A-2780.
Excerpt: as §1, §2

The test system of a further series is Colo 205. As to the kind of experiment: SRB in vitro cytotoxicity assay, Colo 205 colon cancer cells. As to conditions: Homo sapiens, 48 h drug exposure, read-out: In vitro anticancer activity GI50, Colon Colo 205. Type of series: cell-based.
Excerpt: as §1, §2

The next series concerns SiHa. As to the kind of experiment: SRB in vitro cytotoxicity assay, SiHa cervix cancer cells. Conditions: Homo sapiens, 48 h drug exposure, read-out: In vitro anticancer activity GI50, Cervix SiHa. It is filed as cell-based.
Excerpt: as §1, §2

The test system of the next series is Hop62. As to the kind of experiment: SRB in vitro cytotoxicity assay, Hop62 lung cancer cells. Type of series: cell-based. As to conditions: Homo sapiens, HOP-62, 48 h drug exposure, read-out: In vitro anticancer activity GI50, Lung Hop62.
Excerpt: as §1, §2

The next series deals with Zr-75-1. Briefly: SRB in vitro cytotoxicity assay, Zr-75-1 breast cancer cells. Type of series: cell-based. As to conditions: Homo sapiens, 48 h drug exposure, read-out: In vitro anticancer activity GI50, Breast Zr-75-1.
Excerpt: as §1, §2

One may read the GI50 as the concentration at which growth is held to half of that of the control. The melting point is the temperature of the solid-liquid transition.

Turning to `COc1cccc2c1C(=O)c1c(O)c3c(c(O)c1C2=O)C[C@@](O)(C(=O)CO)C[C@@H]3O[C@H]1C[C@H](N)[C@H](O)[C@H](C)O1` [ADR, adriamycin, reference compound], the concentration for 50% growth inhibition (GI50) in the series on KB is 130 nM; in the series on PC3 it was 160 nM; in the series with DWD, under 100 nM; in the series with A-549, under 100 nM; with MCF7, 130 nM; in the series on Gurav it was under 100 nM. Moreover, the concentration for 50% growth inhibition (GI50) with A-2780 was under 100 nM; with Colo 205, under 100 nM; in the series on SiHa it was 160 nM; in the series on Hop62 it was 150 nM; with Zr-75-1, 110 nM.

On to `COc1cc(C2C3=C(COC3=O)Nc3ccc4cn[nH]c4c32)cc(OC)c1OC` (stereo not shown) [Compound 4n, 10-(3,4,5-trimethoxyphenyl)-6,7,9,10-tetrahydro-1H-furo[3,4-b]pyrazolo[3,4-f]quinolin-9-one], for which the GI50 in the series on KB is 2100 nM; in the series with PC3, 190 nM; in the series with DWD, under 100 nM; with A-549, under 100 nM; in the series with MCF7 it was 190 nM; in the series with Gurav it was 160 nM. Further, the GI50 in the series with A-2780 amounted to 140 nM; in the series on Colo 205, 2700 nM; in the series on SiHa, 190 nM; in the series with Hop62, 2100 nM; in the series with Zr-75-1 it was 160 nM.

`COc1ccc(C2C3=C(COC3=O)Nc3ccc4ncsc4c32)cc1O` (stereo not shown) [Compound 4u, 10-(3-hydroxy-4-methoxyphenyl)-6,7,9,10-tetrahydrofuro[3,4-b][1,3]thiazolo[5,4-f]quinolin-9-one] displayed a melting point of 327 to 329 °C. For the same molecule, the 50% growth inhibitory concentration (GI50) with KB amounted to 180 nM. The GI50 with PC3 was determined as 2100 nM. The GI50 with DWD stood at 2000 nM. The GI50 in the series on A-549 was under 100 nM. Further, the GI50 in the series on MCF7 turned out to be 180 nM. Further, the concentration for 50% growth inhibition (GI50) in the series with Gurav came to 190 nM. Also, in the series with A-2780, the GI50 came out at 180 nM. Moreover, the GI50 in the series on Colo 205 is 150 nM. Besides, the 50% growth inhibitory concentration (GI50) in the series with SiHa stood at 2000 nM. Besides, in the series with Hop62, the concentration for 50% growth inhibition (GI50) amounted to 2300 nM. Besides, the GI50 with Zr-75-1 stood at 160 nM.
